Measurements published in patent US10519506B2, “Identification of metastasis-specific miRNA and hypomethylation signatures in human colorectal cancer” (Baylor Research Institute, priority 2011, dated 2019).

Assays:
Format in all cases: cell-based, human
CRC cell lines [1] = test: miRNA expression (TaqMan miRNA assays) in CRC cell lines treated with RNA pol II inhibitor; conditions: 50 μg/ml α-amanitin for 7 hours (FIG. 9)
Method: (§1) Additional materials and methods. CRC Cell line: CACO2, HCT116, RKO, SW48, SW480, and SW620. Tissue specimens: A total of 59 formalin-fixed, paraffin-embedded (FFPE) primary CRC tissues and corresponding liver metastasis tissues were analyzed. 5-Aza-2′-deoxycytidine (5-aza-dC) treatment: CRC cell lines were treated with 2.5 μM 5-aza-dC for 72 hours. α-amanitin treatment: CRC cell lines were treated with 50 μg/ml α-amanitin, a RNA pol II inhibitor, for 7 hours. Methylation analysis: Methylation levels were analyzed by bisulfite pyrosequencing for quantitative methylation analysis using PSQ HS 96A pyrosequencing system (Qiagen) on bisulfite modified genomic DNA template. microRNAs expression analysis: Expression of miR-373 and miR-520c was analyzed using TaqMan miRNA assays.

CRC cell lines [2] = test: Alu methylation by quantitative bisulfite pyrosequencing in CRC cell lines treated with demethylating agent; conditions: for methylation status of global Alu repetitive element: 2.5 μM 5-aza-dC for 72 hours, pyrosequencing (FIG. 3)
Method: (§2) Cell lines and 5-aza-2-deoxy-cytidine treatment. Seven CRC cell lines, HCT116, RKO, SW48, Caco-2, HT29, SW480, and SW620 were obtained from the American Type Culture Collection (ATCC, Rockville, Md.). Cell lines were treated with 2.5 μM 5-Aza-2′-deoxycytidine (5-aza-dC; Sigma-Aldrich) for 72 hours, and fresh medium containing 5-aza-dC was replaced every 24 hours.
DNA methylation analysis. Methylation levels of repetitive sequences (global Alu and local Alu) were analyzed by quantitative bisulfite pyrosequencing using the PSQ HS 96A pyrosequencing system (Qiagen) following bisulfite modification of genomic DNA using EZ DNA methylation Gold Kits (Zymo Research), as described previously.
as §1

CRC cell lines [3] = test: miRNA expression (TaqMan miRNA assays) in CRC cell lines treated with demethylating agent
Method: as §2
miRNA expression analysis. Expression of fourteen metastasis-related miRNAs (let-7i, miR-10b, miR-30b, miR-34a, miR-141, miR-200b, miR-200c, miR-203, miR-221, miR-320a, miR-373, miR-429, miR-518d, and miR-520c) was analyzed using TaqMan miRNA assays (Applied Biosystems Inc., Foster City, Calif.). Expression of RNU6B (Applied Biosystems Inc., Foster City, Calif.) and miR-16 were used as endogenous controls for cell lines and FFPE tissues, respectively.
as §1, with “5-Aza-2′-deoxycytidine (5-aza-dC) treatment: CRC cell lines were treated with 2.5 μM 5-aza-dC for 72 hours. α-amanitin treatment: CRC cell lines were treated with 50 μg/ml α-amanitin, a RNA pol II inhibitor, for 7 hours.” left out

Structure (SMILES)	expression of miR-520c (CRC cell lines [1])	miR-373 transcription / activation (CRC cell lines [1])	miR-373 transcription / activation (CRC cell lines [1]; listed as RNA polymerase II inhibitor)	methylation status of global Alu repetitive element (CRC cell lines [2])	methylation status of global Alu repetitive element (CRC cell lines [2]; listed as 5-azacytidine)	methylation of Alu element in miR-373 promoter region (CRC cell lines [2]; 5Aza treatment)	expression of miR-373 (CRC cell lines [3]; demethylating agent treatment)	expression of miR-520c (CRC cell lines [3]; demethylating agent treatment (FIG. 6B))
CC[C@H](C)[C@@H]1NC(=O)CNC(=O)[C@@H]2Cc3c([nH]c4cc(O)ccc34)[S+]([O-])C[C@@H](NC(=O)CNC1=O)C(=O)N[C@@H](CC(N)=O)C(=O)N1C[C@H](O)C[C@H]1C(=O)N[C@@H]([C@@H](C)[C@@H](O)CO)C(=O)N2 (stereo in doubt) [RNA pol II inhibitor, α-amanitin]	inhibited the expression	did not suppress activation	did not suppress	–	–	–	–	–
Nc1ncn([C@H]2C[C@H](O)[C@@H](CO)O2)c(=O)n1 [5-aza, 5-Aza-2′-deoxycytidine]	–	–	–	markedly demethylated	Global hypomethylation of Alu sequences was observed	demethylated	induced	induced
